Experimental data taken from patent US20210128596A1, “COMPOSITIONS AND METHODS FOR TREATING SEPTIC CARDIOMYOPATHY” (UNIVERSITY OF PENNSYLVANIA, priority 2017, published 2021).
Entries after “also recorded” stand apart in the source; their conditions may differ.

Columns and labels:
adenylyl cyclase V/VI = assay: Adenylyl cyclase V/VI expression (western blot) in CLP mice; type: in vivo, mouse; settings: SDG following CLP
Procedure: Mice were either sham treated (n=3) or subjected to cecal ligation puncture (CLP, n=6). SDG was administered to three mice following CLP.

AC16 cells = assay: Mitochondrial number (Mitotracker Red) in LPS-treated AC16 cells; type: cell-based, human
Procedure: AC16 cells were either left untreated or treated for 12 hours with Liposaccharide (LPS) in the absence or presence of SDG, and mitochondria were stained.
To assess changes in the mitochondrial number, LPS stimulated AC16 cells and adult cardiomyocytes isolated 12 hours post-CLP were stained with 200 nM Mitotracker Red (M22425, Molecular Probes), and incubated for 30 minutes in the dark. Excess Mitotracker Red was removed with three washed of PBS solution. Mitotracker Red fluorescence was recorded at 581 (excitation) and 644 nm (emission).

MCU and MICU1 = MCU and MICU1 mRNA and protein levels after LPS; type: in vivo, mouse; settings: LPS with SDG
Procedure: Mice were either sham treated or treated with LPS in with or without SDG (n=3 for each group) and the levels of MCU and MICU1 mRNAs were measured in quantitative PCR while the levels of protein were assessed through western blot.
(§1) RNA purification and gene expression analysis—Total RNA was purified from AC16 cells or hearts using the TRIzol reagent according to the instructions of the manufacturer (Invitrogen). DNase-treated RNA was used for cDNA synthesis using the ProtoScript II First Strand cDNA Synthesis Kit (New England Biolabs). Quantitative real-time PCR was performed with the Sybr Select Master Mix (Applied Biosystems). Incorporation of the SYBR green dye into the PCR products was monitored with the Applied Biosystems StepOnePlus Real-Time PCR System. Samples were normalized against mouse 36B4 or human rps13 RNA.
(§2) Protein purification and analysis—Isolated heart tissue or AC16 cells were homogenized in radioimmune precipitation assay buffer containing protease and phosphatase inhibitors (Pierce Protease and Phosphatase Inhibitor Mini Tablets, Thermo Scientific). 30-50 μg of total protein extract was applied to SDS-PAGE and transferred onto nitrocellulose membranes.

IκBα = assay: Phosphorylated and total IkBα immunoblot, ventricular tissue; type: in vivo, mouse; settings: ventricular tissue 12 hours post-surgery
Procedure: as §2

[1] = tested on: IL-1α, IL-1β, IL-6, IL-10 and TNFα; assay: Plasma levels of cytokines (Milliplex); type: in vivo, mouse; settings: plasma 12 hours post-surgery
Text: Inflammatory cytokines measurement—Circulating levels of IL-1α, IL-1β, IL-6, IL-10 and TNFα were quantified simultaneously from frozen plasma samples using the Milliplex MAP Mouse Cytokine kit (MCYTOMAG-70K-05) following the kit specifications. Samples were read using the Luminex MAGPIX multiplexing unit.

C57BL/6 mice = assay: In vivo cardiac adrenergic sensitivity (hemodynamics, isoproterenol); design: species or system mouse; settings: 12 h post-CLP, LGM2605 6 h post-CLP
Procedure: In vivo cardiac adrenergic sensitivity measurements—Hemodynamics measurements were performed, as published^21. Mice were anesthetized with 2% Tribromoethanol (Avertin). The right carotid artery was cannulated with a 1.4 French micro-manometer (Millar Instruments, Houston, Tex.) and was advanced into LV cavity, measuring LV pressure, LV end-diastolic pressure (LVEDP) and heart rate (HR). These parameters as well as maximal values of the instantaneous first derivative of LV pressure (+dP/dtmax, as a measure of cardiac contractility) and minimum values of the instantaneous first derivative of LV pressure (−dP/dtmin, as a measure of cardiac relaxation) were recorded at baseline and after administration, through the jugular vein, of increasing doses of the β-adrenergic receptor (βAR) agonist, isoproterenol (0.1 ng, 0.5 ng, 1 ng, 5 ng, 10 ng). Data was recorded and analyzed on a PowerLab System (AD Instruments).

[2] = tested on: ventricular tissue of septic mice; assay: Antioxidant-related gene expression in ventricular tissue; type: in vivo, mouse; settings: ventricular tissue 12 hours after CLP
Procedure: as §1

[3] = tested on: adult cardiomyocytes isolated from septic mice; assay: Mitotracker Red staining of adult cardiomyocytes isolated from septic mice; type: in vivo, mouse; settings: adult cardiomyocytes isolated 12 hours post-CLP
Procedure: Adult mouse cardiomyocytes isolation-Adult mouse cardiomyocytes (ACMs) were isolated from ventricles of C57BL/6 mice 12 hours post-sham surgery, CLP surgery or combined performance of CLP and treatment with LGM2605 at 6 hours post-surgery. Hearts from heparinized mice (90 USP; ip) were cannulated through the aorta. Hearts were perfused with perfusion buffer (120.4 mMNaCl, 14.7 mM KCL, 0.6 mM NaH2PO4, 0.6 mM KH2PO4, 1.2 mM MgSO4, 10 mM Hepes, 4.6 mM NaHCO3, 30 mMtaurine, 10 mM BDM, 5.5 mM glucose; pH 7.4) for 3 min followed by digestion with perfusion buffer containing 19250 units Collagenese type II (Worthington), 5-6 mg trypsin and 0.02 mM CaCl2 for 7 min. Ventricles were gently […] into small pieces, perfusion buffer containing 5 mg/ml BSA and 0.125 mM CaCl2 was added and filtered with 100 μm nylon. The filtrate was pelleted by gravity for 5 min, centrifuged for 30 sec at 700 rpm and the pellet resuspended in perfusion buffer containing 5 mg/ml BSA and 0.225 mM CaCl2. The cells were pelleted by gravity for 10 min, centrifuged for 30 sec at 700 rpm and the pellet resuspended in perfusion buffer containing 5 mg/ml BSA and 0.525 mM CaCl2. […] Mitotracker Red fluorescence was recorded at 581 (excitation) and 644 nm (emission).

[4] = tested on: ventricular tissue of septic mice; assay: Mitochondrial biogenesis, fusion and fission gene expression in ventricular tissue; type: in vivo, mouse
Procedure: as §1

COc1cc(C[C@@H](CO[C@@H]2O[C@H](CO)[C@@H](O)[C@H](O)[C@H]2O)[C@H](CO[C@@H]2O[C@H](CO)[C@@H](O)[C@H](O)[C@H]2O)Cc2ccc(O)c(OC)c2)ccc1O [LGM2605, secoisolariciresinol diglucoside]
adenylyl cyclase V/VI expression (AC/GAPDH ratio) (adenylyl cyclase V/VI): restores cyclase V/VI expression pre-CLP levels
number of mitochondria (Mitotracker) (AC16 cells; LPS 12 h with SDG/LGM2605): prevented by treatment with LGM2605
number of mitochondria (Mitotracker) (AC16 cells; LPS 12 h with SDG/LGM2605, listed as SDG): more than compensated for this LPS-dependent drop; also recorded: restored mitochondrial abundance in vitro and in vivo
MCU and MICU1 mRNA levels (MCU and MICU1): restored mRNA expression
MCU protein level (western blot) (MCU and MICU1): reverses the LPS-mediated decrease of MCU protein level
MICU1 protein level (western blot) (MCU and MICU1): increases MICU1 protein level
phosphorylation of IκBα (IκBα): prevented by LGM2605
circulating levels of IL-1α, IL-1β, IL-6, TNFα and IL-10 [1]: did not reduce circulating levels
responsiveness to isoproterenol (C57BL/6 mice): less robust in both septic groups regardless of LGM2605 treatment
basal LVdP/dtmax and LVdP/dtmin (C57BL/6 mice; compared to sham surgery): lower basal myocardial LVdP/dtmax (FIG. 14B) and LVdP/dtmin (FIG. 14C) with or without LGM2605 administration
cardiac expression of antioxidant genes (NRF2, HO1, GSTM1, NQO1, UCP2, UCP3) [2]: not accompanied by prevention of the CLP-mediated changes in cardiac expression of antioxidant genes
mitochondrial abundance (Mitotracker staining) [3]: prevents CLP-associated reduction in mitochondrial abundance
mitochondrial abundance (Mitotracker staining) ([3]; listed as SDG): restored mitochondrial abundance in vitro and in vivo
mitochondrial biogenesis markers PGC1α, PGC1β, mtTFA gene expression ([4]; ventricular tissue 12 hours post-CLP): None of these changes was affected by LGM2605
MFN1, MFN2, DRP1, and FIS1 expression ([4]; ventricular tissue 12 hrs after CLP): restored the CLP-mediated changes in MFN1, MFN2, DRP1, and FIS1 expression
